From ChEMBL document CHEMBL1142391, “Biologically active aspidofractinine alkaloids from Kopsia singapurensis” (J Nat Prod, 2008)
In brackets after ≈: the same amount, converted by molar mass.

How the values were obtained:
Type in all cases: functional, cell-based
KB [1] = assay: Reversal of multidrug resistance in vincristine-resistant human KB cells in presence of 0.1 uM vincristine
[2] = Cytotoxicity against vincristine-resistant human KB/VJ300 cells
KB [3] = assay: Reversal of multidrug resistance in vincristine-resistant human KB cells in presence of 0.121 uM vincristine

| Compound | IC50 (KB [1]) | IC50 [2] | IC50 (KB [3]) |
| --- | --- | --- | --- |
| COC(=O)N1c2c(ccc(OC)c2O)[C@@]23CCN4C[C@@H]5O[C@@H]5[C@]5(CC[C@]12[C@](O)(C(=O)OC)[C@@H]5O)[C@H]43 [KOPSIMALINE C] | 18.2 µg/mL | > 25 µg/mL | – |
| COC(=O)N1c2c(O)cccc2[C@@]23CCN4C[C@@H]5O[C@@H]5[C@]5(CC[C@]12[C@](O)(C(=O)OC)[C@@H]5O)[C@H]43 [KOPSIMALINE B] | 13 µg/mL | > 25 µg/mL | – |
| COC(=O)N1c2c(ccc3c2OCO3)[C@@]23CCN4C[C@@H]5O[C@@H]5[C@]5(CC[C@]12[C@](O)(C(=O)OC)[C@@H]5O)[C@H]43 [KOPSIMALINE A] | – | > 25 µg/mL | 3.9 mM |
| COC(=O)N1c2c(ccc3c2OCO3)[C@@]23CCN4C[C@@H]5O[C@@H]5[C@@]5([C@@H](O)[C@@](O)(C(=O)OC)[C@@]12C[C@@H]5O)[C@H]43 [KOPSIMALINE D] | 9.2 µg/mL | 25 µg/mL (≈ 49.8 µM) | – |
| CCOC(=O)[C@@H]1[C@@H](O)[C@@]23C=CCN4CC[C@@]5(c6ccccc6N[C@]15CC2)[C@@H]43 [KOPSILOSCINE J] | 15 µg/mL | > 25 µg/mL | – |
| COC(=O)N1c2c(OC)cccc2[C@@]23CCN4C[C@@H]5O[C@@H]5[C@]5(CC[C@]12[C@](O)(C(=O)OC)[C@@H]5O)[C@H]43 [KOPSIMALINE E] | 18 µg/mL | > 25 µg/mL | – |
